Test results from US20060069157A1, “Method of ameliorating or abrogating the effects of a neurodegenerative disorder, such as Huntington's disease, by sodium butyrate chemotherapy” (U.S. DEPARTMENT OF VETERANS AFFAIRS, priority 2004, published 2006).

Legend:
huntingtin transgene = assay: Transgene expression (Western blot, whole brain, 1C2 antibody); format: in vivo, mouse; details: 1.2 g/kg/d; R6/2 whole brain; vs PBS-treated R6/2
Method: Transgene Expression: Transgene expression was determined in whole brain by Western blot analysis of groups (n=6) of sodium butyrate-treated (1.2 g/kg/d) and untreated R6/2 mice. Brain tissue was homogenized in a protease inhibitor cocktail buffer (Complete, Roche). Twenty Êg of protein (supernatant fraction) was resolved on 10% SDS-polyacrylamide gel (BioRad), transferred to PVDF membrane (BioRad), and probed with 1C2 antibody (Euromedex, France) specific for regions of expanded huntingtin, using a horseradish conjugated anti-rabbit secondary antibody, followed by chemiluminescent detection (Western Lightening™, New England Nuclear), and run with parallel blots probed against (-tubulin to normalize for gel loading.

[1] = tested on: R6/2 transgenic mouse model of HD; assay: Survival of R6/2 mice, intraperitoneal dose response; format: in vivo
Description: Animals: The Bedford VA Medical Center laboratories have maintained a stable colony of R6/2 HD mice for over 6 years, with founders originating from Jackson Laboratories (Bar Harbor, Me., USA). Male transgenic HD mice of the R6/2 strain were bred with females from their background strain (B6CBAFI/J). Offspring were genotyped using a PCR assay on tail DNA. We have standardized criteria to ensure homogeneity of the cohorts within the testing groups (Dedeoglu et al., 2002). Mice were randomized from 28 litters all within 3 days from the same ‘f’ generation. Body weights were taken at 20 days and mice were equally distributed according to weight within each cohort. Mice under 7 g at 20 days were excluded from the experiments. The animals were housed 5/cage under standard conditions with free access to water and food. The mice were handled under the same conditions by one investigator. Since we have not observed gender differences in survival in the R6/2 transgenic HD mouse model (Ferrante et al., 2000), female mice were used in the experimental paradigms. These experiments were carried out in accordance with the NIH Guide for the Care and Use of Laboratory Animals, and were approved by both the Veterans Administration and Boston University Animal Care Committees.
Intraperitoneal Dosing: Based upon previous studies (Egorin et al., 1999), a dose response study was performed, treating groups of wild type mice (n=10) and littermate R6/2 mice (n=20) with 100, 200, 400, 600, 1,200, 5,000, and 10,000 mg/kg daily intraperitoneal injection (100 Êl) of sodium butyrate (Acros Organics/Fisher Scientific) dissolved in PBS and made fresh daily. […]
Survival: R6/2 mice were assessed for morbidity and mortality twice daily, mid morning and late afternoon. Motor performance and ability to feed were closely monitored and used as the basis for determining when to euthanize the mice. […] In addition, deaths occurred overnight and were recorded the following morning. […]
Statistics: The data are expressed as the mean+standard error of the mean. […] Survival data was analyzed by the Kaplan-Meier survival curves.

[2] = tested on: mRNA expression in R6/2 striatum and cortex; assay: Microarray gene expression analysis (U74Av2) of striatum and cortex; format: in vivo, mouse; parameters: key to Array, NaBu Txd R6/2 vs R6/2: I = increased; D = decreased; NC = no change
Method: Microarray Gene Expression Analysis: Beginning at six weeks of age, four mice were treated for 2 weeks with daily intraperitoneal injections (1.2 g/kg) of sodium butyrate. Mice were euthanized within 60 minutes of the last injection and cortical and striatal brain tissues were dissected separately and snap frozen on dry ice. In parallel, samples from four untreated R6/2 and four wild-type mice were collected in the same manner. One microarray sample was prepared from 10 Êg of total RNA from each tissue and hybridized to one U74Av2 array (Affymetrix). Four independent pair-wise comparisons were performed using MAS 5.0 software (Affymetrix) to evaluate gene expression changes between sodium butyrate-treated R6/2 and untreated R6/2 animals and between untreated R6/2 and untreated wild-type animals. Difference calls were scored, and only mRNAs that received difference calls in the same direction (increased or decreased) in at least 3 of the 4 pair-wise comparisons were included for presentation in the present study.

[3] = Angiomotin like 2 mRNA, AI854404, 160131_at, Cortex, treated vs untreated R6/2
[4] = Arginine vasopressin mRNA, M88354, 93381_at, Cortex, treated vs untreated R6/2
[5] = DNAJ/Heat shock protein 40 mRNA, AB028272, 96254_at, Striatum, treated vs untreated R6/2
[6] = Dynamin mRNA, L31397, 103031_g_at, Cortex, treated vs untreated R6/2
[7] = Erythroid differentiation regulator mRNA, AJ007909, 98525_f_at, Striatum, treated vs untreated R6/2
[8] = Hemoglobin, alpha adult chain 1 mRNA, V00714, 94781_at, Striatum + Cortex, treated vs untreated R6/2
[9] = Hemoglobin, beta 1 mRNA, V00722, 103534_at, Cortex, treated vs untreated R6/2
[10] = Hemoglobin, beta adult major chain mRNA, J00413, 101869_s_at, Striatum + Cortex, treated vs untreated R6/2
[11] = Heterogeneous nuclear ribonucleoprotein A1 mRNA, AI183202, 92724_at, Striatum, treated vs untreated R6/2
[12] = MAP kinase phosphatase-1 (MKP-1) mRNA, X61940, 104598_at, Striatum + Cortex, 1.2 g/kg i.p. 2 weeks vs untreated R6/2
[13] = MAP kinase phosphatase-3 (MKP-3) mRNA, AI845584, 93285_at, Cortex, treated vs untreated R6/2
[14] = Microtubule-associated protein tau mRNA, M18775, 102431_at, Cortex, treated vs untreated R6/2
[15] = Protein phosphatase 1B, beta isoform mRNA, D45859, 101836_at, Striatum, treated vs untreated R6/2
[16] = Transthyretin mRNA, D00073, 95350_at, Striatum, treated vs untreated R6/2
[17] = Unknown mRNA, AA711516, 96302_at, Striatum, treated vs untreated R6/2
[18] = Unknown mRNA, AI153421, 96215_f_at, Striatum, treated vs untreated R6/2
[19] = Unknown mRNA, AI451558, 97161_at, Striatum, treated vs untreated R6/2
[20] = Unknown mRNA, AV330064, 161114_i_at, Cortex, treated vs untreated R6/2
[21] = Unknown mRNA, C79248, 94689_at, Striatum + Cortex, treated vs untreated R6/2
[22] = c-fos oncogene mRNA, V00727, 160901_at, Cortex, treated vs untreated R6/2

## CCCC(=O)[O-].[Na+] [sodium butyrate]
Huntingtin transgene
  huntingtin transprotein expression-levels: no differences
[1]; 1,200 mg/kg/d i.p. from day 21, vs PBS-treated R6/2 mice, p<0.001
  extension of survival: 20.8%
[1]; 5 g/kg/d i.p., treatment initiated at 21 days
  time at which mice became moribund and died: 1 to 11 days
[1]; 5,000 and 10,000 mg/kg/d i.p.
  morbidity and mortality at onset of treatment: marked rapidly-coursing morbidity and mortality
[2]; [3]
  % Change calls: 100%
  Direction of change: Increase
[2]; [4]
  % Change calls: 75%
  Direction of change: Increase
[2]; [5]
  % Change calls: 75%
  Direction of change: Increase
[2]; [6]
  % Change calls: 75%
  Direction of change: Decrease
[2]; [7]
  % Change calls: 100%
  Direction of change: Decrease
[2]; [8]
  % Change calls: 100%
  Direction of change: Increase
[2]; [9]
  % Change calls: 75%
  Direction of change: Increase
[2]; [10]
  % Change calls: 100%
  Direction of change: Increase
[2]; [11]
  % Change calls: 75%
  Direction of change: Decrease
[2]; [12]
  % Change calls: 100%
  Direction of change: Increase
[2]; [13]
  % Change calls: 75%
  Direction of change: Increase
[2]; MKP-1 mRNA, Cortex
  Array, NaBu Txd R6/2 vs R6/2: I
[2]; MKP-1 mRNA, Striatum
  Array, NaBu Txd R6/2 vs R6/2: I
[2]; [14]
  % Change calls: 75%
  Direction of change: Decrease
[2]; Preproenkephalin mRNA, Striatum
  Array, NaBu Txd R6/2 vs R6/2: NC
[2]; [15]
  % Change calls: 75%
  Direction of change: Increase
[2]; [16]
  % Change calls: 75%
  Direction of change: Decrease
[2]; [17]
  % Change calls: 75%
  Direction of change: Decrease
[2]; [18]
  % Change calls: 75%
  Direction of change: Decrease
[2]; [19]
  % Change calls: 75%
  Direction of change: Decrease
[2]; [20]
  % Change calls: 75%
  Direction of change: Decrease
[2]; [21]
  % Change calls: 75%
  Direction of change: Decrease
[2]; [22]
  % Change calls: 100%
  Direction of change: Increase
[2]; treated R6/2 vs untreated R6/2, striatum and cortex, 1.2 g/kg i.p. 2 weeks
  number of mRNA changes: 20
[2]; α-globin mRNA, Cortex
  Array, NaBu Txd R6/2 vs R6/2: I
[2]; α-globin mRNA, Striatum
  Array, NaBu Txd R6/2 vs R6/2: I
[2]; β-globin mRNA, Cortex
  Array, NaBu Txd R6/2 vs R6/2: I
[2]; β-globin mRNA, Striatum
  Array, NaBu Txd R6/2 vs R6/2: I
